{"source": "PubChem BioAssay AID493136", "about": "(Sanford-Burnham Center for Chemical Genomics, 2011)", "note": "pIC50: −log10 of the molar value. The source made the active and inactive calls. The rule behind the calls is not given here."}
{"molecular_target": "Alkaline phosphatase, germ cell type (Homo sapiens) (UniProt P10696)", "sequence (P10696 whole entry, looked up)": "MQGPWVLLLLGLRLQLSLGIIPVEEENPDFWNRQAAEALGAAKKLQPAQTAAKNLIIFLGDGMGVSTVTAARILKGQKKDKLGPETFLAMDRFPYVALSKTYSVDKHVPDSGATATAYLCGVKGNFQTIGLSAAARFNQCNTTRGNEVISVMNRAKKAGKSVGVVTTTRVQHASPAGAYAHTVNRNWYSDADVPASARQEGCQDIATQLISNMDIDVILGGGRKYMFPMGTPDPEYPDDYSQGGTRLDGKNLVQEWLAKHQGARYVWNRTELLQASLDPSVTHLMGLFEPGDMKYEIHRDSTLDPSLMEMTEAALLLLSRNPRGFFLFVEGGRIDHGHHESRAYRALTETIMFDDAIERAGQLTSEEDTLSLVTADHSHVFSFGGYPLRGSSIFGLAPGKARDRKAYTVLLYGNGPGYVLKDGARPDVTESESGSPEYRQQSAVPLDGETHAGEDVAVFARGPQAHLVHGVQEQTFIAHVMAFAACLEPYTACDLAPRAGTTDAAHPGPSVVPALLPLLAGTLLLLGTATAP", "assay": "PLAP-like enzyme inhibition by analogs, SAR follow-up, selectivity assay for mouse IAP inhibitor project, biochemical, human placental-like ALPPL2 isozyme (AID 493136)", "details": "purified placental-like alkaline phosphatase, phosphatase activity"}
{"molecule": "CCn1cc(CN2CCC(C(=O)Nc3cccc(-c4cccc(Cl)c4)c3)CC2)cn1", "IC50": "> 100 µM (inactive)"}
{"molecule": "Cc1ccc(C)c(NC(=S)NCCC(c2ccccc2)c2ccccc2)c1", "IC50": "> 100 µM (inactive)"}
{"molecule": "FC(F)(F)c1cccc(NC(=S)NCCC(c2ccccc2)c2ccccc2)c1", "IC50": "> 100 µM (inactive)"}
{"molecule": "Cc1cccc(NC(=S)NCCC(c2ccccc2)c2ccccc2)c1C", "IC50": "> 100 µM (inactive)"}
{"molecule": "S=C(NCCC(c1ccccc1)c1ccccc1)Nc1ccc(Cl)cc1", "IC50": "> 100 µM (inactive)"}
{"molecule": "Fc1ccccc1NC(=S)NCCC(c1ccccc1)c1ccccc1", "IC50": "> 100 µM (inactive)"}
{"molecule": "CC(C)n1cc(CN2CCC(C(=O)Nc3cccc(-c4cccc(F)c4)c3)CC2)cn1", "IC50": "> 100 µM (inactive)"}
{"molecule": "S=C(NCCC(c1ccccc1)c1ccccc1)Nc1ccccc1", "IC50": "> 100 µM (inactive)"}
{"molecule": "CCn1cc(CN2CCC(C(=O)Nc3cccc(-c4cccc(F)c4)c3)CC2)cn1", "IC50": "> 100 µM (inactive)"}
{"molecule": "CCCn1ncc(CN2CCC(C(=O)Nc3cccc(-c4cccc(F)c4)c3)CC2)c1C", "IC50": "> 100 µM (inactive)"}
{"molecule": "COc1cccc(-c2cccc(NC(=O)C3CCN(Cc4ccc(C)o4)CC3)c2)c1", "IC50": "> 100 µM (inactive)"}
{"molecule": "C=CCn1cc(CN2CCC(C(=O)Nc3cccc(-c4cccc(F)c4)c3)CC2)c(C)n1", "IC50": "> 100 µM (inactive)"}
{"molecule": "Cc1ccc(NC(=S)NCCC(c2ccccc2)c2ccccc2)cc1C", "IC50": "> 100 µM (inactive)"}
{"molecule": "Cc1cc(NC(=O)CCNS(=O)(=O)c2ccc3[nH]c(=O)oc3c2)ccc1Br", "IC50": "> 100 µM (inactive)"}
{"molecule": "COc1ccc(Cl)cc1Nc1nc(-c2ccc(O)c(O)c2)cs1", "IC50": "> 100 µM (inactive)"}
{"molecule": "O=C(Nc1cccc(-c2cccc(F)c2)c1)C1CCN(Cc2ccc(CO)o2)CC1", "IC50": "> 100 µM (inactive)"}
{"molecule": "CCn1c(SCC(=O)c2ccc(O)c(O)c2)nnc1-c1ccccc1OC", "pIC50": 4.61}
{"molecule": "Cc1c(CN2CCC(C(=O)Nc3cccc(-c4cccc(Cl)c4)c3)CC2)cnn1C", "IC50": "> 100 µM (inactive)"}
{"molecule": "Cc1nn(C)c(Cl)c1CN1CCC(C(=O)Nc2cccc(-c3cccc(F)c3)c2)CC1", "IC50": "> 100 µM (inactive)"}
{"molecule": "NS(=O)(=O)c1ccc(NC(=S)NCCC(c2ccccc2)c2ccccc2)cc1", "IC50": "> 100 µM (inactive)"}
{"molecule": "COc1ccc(NC(=S)NCCC(c2ccccc2)c2ccccc2)cc1", "IC50": "> 100 µM (inactive)"}
{"molecule": "O=[N+]([O-])c1ccc(NC(=S)NCCC(c2ccccc2)c2ccccc2)cc1", "IC50": "> 100 µM (inactive)"}
{"molecule": "S=C(NCCC(c1ccccc1)c1ccccc1)Nc1ccc(Cl)c(Cl)c1", "IC50": "> 100 µM (inactive)"}
{"molecule": "Cc1cc(Cl)ccc1NC(=S)NCCC(c1ccccc1)c1ccccc1", "IC50": "> 100 µM (inactive)"}
{"molecule": "CCn1nc(C)c(CN2CCC(C(=O)Nc3cccc(-c4cccc(Cl)c4)c3)CC2)c1C", "IC50": "> 100 µM (inactive)"}
{"molecule": "CCOC(=O)c1ccc(NC(=S)NCCC(c2ccccc2)c2ccccc2)cc1", "IC50": "> 100 µM (inactive)"}
{"molecule": "O=C(CN1C(=O)/C(=C/c2ccco2)SC1=S)Nc1ccc(C(=O)O)cc1", "IC50": "> 100 µM (inactive)"}
{"molecule": "CC1(c2ccccc2)CC(C)(C)N(C(=S)Nc2ccccc2)c2ccccc21", "note": "(stereo not drawn)", "IC50": "> 100 µM (inactive)"}
{"molecule": "O=S(=O)(Nc1ncccn1)c1ccc(NC(=S)NCCC(c2ccccc2)c2ccccc2)cc1", "IC50": "> 100 µM (inactive)"}
{"molecule": "COCc1ccc(CN2CCC(C(=O)Nc3cccc(-c4cccc(Cl)c4)c3)CC2)o1", "IC50": "> 100 µM (inactive)"}
{"molecule": "Cc1ccc(NC(=S)NCCC(c2ccccc2)c2ccccc2)cc1", "IC50": "> 100 µM (inactive)"}
{"molecule": "CC(C)c1ccccc1NC(=S)NCCC(c1ccccc1)c1ccccc1", "IC50": "> 100 µM (inactive)"}
{"molecule": "CCn1cc(CN2CCC(C(=O)Nc3cccc(-c4cccc(OC)c4)c3)CC2)c(C)n1", "IC50": "> 100 µM (inactive)"}
{"molecule": "COc1ccc(C(=O)CSc2n[nH]c(-c3ccccc3)n2)cc1OC", "IC50": "> 100 µM (inactive)"}
{"molecule": "COC(=O)c1cc(NC(=S)NCCC(c2ccccc2)c2ccccc2)cc(C(=O)OC)c1", "IC50": "> 100 µM (inactive)"}
{"molecule": "C=CCn1cc(CN2CCC(C(=O)Nc3cccc(-c4cccc(Cl)c4)c3)CC2)c(C)n1", "IC50": "> 100 µM (inactive)"}
{"molecule": "CC(C)N1CCC(=NNC(=O)c2cc(O)c(O)c(O)c2)CC1", "IC50": "> 100 µM (inactive)"}
{"molecule": "CCc1ccccc1Nc1nc(-c2ccc(O)c(O)c2)cs1", "IC50": "> 100 µM (inactive)"}
{"molecule": "Fc1ccc(NC(=S)NCCC(c2ccccc2)c2ccccc2)cc1Cl", "IC50": "> 100 µM (inactive)"}
{"molecule": "CCn1cc(CN2CCC(C(=O)Nc3cccc(-c4cccc(OC)c4)c3)CC2)cn1", "IC50": "> 100 µM (inactive)"}
{"molecule": "CC(C)n1cc(CN2CCC(C(=O)Nc3cccc(-c4cccc(Cl)c4)c3)CC2)cn1", "IC50": "> 100 µM (inactive)"}
{"molecule": "Cc1cc(=O)oc2cc(NC(=S)NCCC(c3ccccc3)c3ccccc3)ccc12", "IC50": "> 100 µM (inactive)"}
{"molecule": "COc1cc([N+](=O)[O-])ccc1NC(=S)NCCC(c1ccccc1)c1ccccc1", "IC50": "> 100 µM (inactive)"}
{"molecule": "S=C(NCCC(c1ccccc1)c1ccccc1)Nc1cccc(Cl)c1", "IC50": "> 100 µM (inactive)"}
{"molecule": "CCN1CCN(S(=O)(=O)c2ccc3[nH]c(=O)oc3c2)CC1", "IC50": "> 100 µM (inactive)"}
{"molecule": "COc1ccc(Cl)cc1NC(=S)NCCC(c1ccccc1)c1ccccc1", "IC50": "> 100 µM (inactive)"}
{"molecule": "Oc1ccc(-c2csc(Nc3cccc4ccccc34)n2)cc1O", "IC50": "> 100 µM (inactive)"}
{"molecule": "Cc1nn(C(C)C)c(C)c1CN1CCC(C(=O)Nc2cccc(-c3cccc(F)c3)c2)CC1", "IC50": "> 100 µM (inactive)"}
{"molecule": "Cc1c(Cl)cccc1Nc1nc(-c2ccc(O)c(O)c2)cs1", "IC50": "> 100 µM (inactive)"}
{"molecule": "O=C(Nc1cccc(-c2cccc(Cl)c2)c1)C1CCN(C2CCC2)CC1", "IC50": "> 100 µM (inactive)"}
{"molecule": "CN(C)S(=O)(=O)c1cccc(NC(=S)NCCC(c2ccccc2)c2ccccc2)c1", "IC50": "> 100 µM (inactive)"}
{"molecule": "S=C(NCCC(c1ccccc1)c1ccccc1)Nc1ccc(Nc2ccccc2)cc1", "IC50": "> 100 µM (inactive)"}
{"molecule": "O=C(CN1C(=O)/C(=C/c2ccco2)SC1=S)Nc1cccc(C(=O)O)c1", "IC50": "> 100 µM (inactive)"}
{"molecule": "O=C(Nc1cccc(-c2cccc(Cl)c2)c1)C1CCN(Cc2ccc(CO)o2)CC1", "IC50": "> 100 µM (inactive)"}
{"molecule": "CCn1nc(C)c(CN2CCC(C(=O)Nc3cccc(-c4cccc(F)c4)c3)CC2)c1C", "IC50": "> 100 µM (inactive)"}
{"molecule": "O=C(CN1C(=O)/C(=C\\c2ccco2)SC1=S)Nc1ccccc1C(=O)O", "IC50": "> 100 µM (inactive)"}
{"molecule": "Cc1cc(C)cc(NC(=S)NCCC(c2ccccc2)c2ccccc2)c1", "IC50": "> 100 µM (inactive)"}
{"molecule": "S=C(NCCC(c1ccccc1)c1ccccc1)Nc1ccc(Cl)cc1Cl", "IC50": "> 100 µM (inactive)"}
{"molecule": "Cn1cc(CN2CCC(C(=O)Nc3cccc(-c4cccc(F)c4)c3)CC2)cn1", "IC50": "> 100 µM (inactive)"}
{"molecule": "COc1cc(NC(=S)NCCC(c2ccccc2)c2ccccc2)cc(OC)c1", "IC50": "> 100 µM (inactive)"}
{"molecule": "COc1cccc(NC(=S)NCCC(c2ccccc2)c2ccccc2)c1", "IC50": "> 100 µM (inactive)"}
{"molecule": "Cn1cc(CN2CCC(C(=O)Nc3cccc(-c4cccc(Cl)c4)c3)CC2)cn1", "IC50": "> 100 µM (inactive)"}
{"molecule": "CN1CCC(=NNC(=O)c2cc(O)c(O)c(O)c2)CC1", "IC50": "> 100 µM (inactive)"}
{"molecule": "COc1cccc(-c2cccc(NC(=O)C3CCN(Cc4ccc(CO)o4)CC3)c2)c1", "IC50": "> 100 µM (inactive)"}
{"molecule": "Cc1c(Cl)cccc1NC(=S)NCCC(c1ccccc1)c1ccccc1", "IC50": "> 100 µM (inactive)"}
{"molecule": "CCn1ncc(CN2CCC(C(=O)Nc3cccc(-c4cccc(F)c4)c3)CC2)c1C", "IC50": "> 100 µM (inactive)"}
{"molecule": "Cc1ccc(NC(=O)CCNS(=O)(=O)c2ccc3[nH]c(=O)oc3c2)cc1C", "IC50": "> 100 µM (inactive)"}
{"molecule": "Cc1ccc(CN2CCC(C(=O)Nc3cccc(-c4cccc(F)c4)c3)CC2)o1", "IC50": "> 100 µM (inactive)"}
